Among the data in patent publication US11091478B2 (Fochon Pharmaceuticals, Ltd., priority 2017, dated 2021) are IC50 values, retold here.

What is called IC50 is the concentration at which inhibition is half-maximal. Read a high IC50 as a need for much substance.

Read-outs that look alike come from different tables or passages of the source.

For one assay, the system named is DOHH2 cells. As to the kind of experiment: Cell proliferation assay (MTS), DOHH2 cells, 120 h. The assay is classed as cell-based. Put shortly:
(§1)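 RS4;11 and DOHH2 cells at 5000 cells/well in RPMI-1640 with 10% FBS were treated with compound at 1.5–10000 nM final, nine points, at 37 °C, 5% CO2. Exposure was 72 h for RS4;11 and 120 h for DOHH2. MTS was added for 2 h, absorbance read at 490/650 nm, and IC50 calculated.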

Another assay relates to RS4;11 cells. Kind of assay: Cell proliferation assay (MTS), RS4;11 cells, 72 h. Particulars: Homo sapiens, RS4-11, 72 h. Type of assay: cell-based. A digest of the protocol: as §1

On to `COC(=O)NC[C@H]1COc2cc(S(=O)(=O)NC(=O)c3ccc(N4CCN(CC5=C(c6ccc(Cl)cc6)CC(C)(C)CC5)CC4)cc3Oc3cnc4[nH]ccc4c3)cc([N+](=O)[O-])c2N1` [Example 2-60, methyl (S)-((7-(N-(2-((1H-pyrrolo[2,3-b]pyridin-5-yl)oxy)-4-(4-((4′-chloro-5,5-dimethyl-3,4,5,6-tetrahydro-[1,1′-biphenyl]-2-yl)methyl)piperazin-1-yl)benzoyl)sulfamoyl)-5-nitro-3,4-dihydro-2H-benzo[b][1,4]oxazin-3-yl)meth-yl)carbamate], for which the half-maximal inhibitory concentration (IC50) with DOHH2 cells (Homo sapiens, DOHH-2, 120 h) was determined as 82 nM; in the assay with RS4;11 cells it was 1 nM.

Take `C[C@H]1CN(CC[C@@H]2COc3cc(S(=O)(=O)NC(=O)c4ccc(N5CCN(CC6=C(c7ccc(Cl)cc7)CC(C)(C)CC6)CC5)cc4Oc4cnc5[nH]ccc5c4)cc([N+](=O)[O-])c3N2)CCO1` [Example 2-41, 2-((1H-pyrrolo[2,3-b]pyridin-5-yl)oxy)-4-(4-((4′-chloro-5,5-dimethyl-3,4,5,6-tetrahydro-[1,1′-biphenyl]-2-yl)methyl)piperazin-1-yl)-N-(((R)-3-(2-((S)-2-methylmorpholino)ethyl)-5-nitro-3,4-dihydro-2H-benzo[b][1,4]oxazin-7-yl)sulfonyl)benzamide]: the IC50 with DOHH2 cells (Homo sapiens, DOHH-2, 120 h) was found to be 23 nM; in the assay on RS4;11 cells, 2 nM.

`CN1CCC(C[C@@H]2COc3cc(S(=O)(=O)NC(=O)c4ccc(N5CCN(CC6=C(c7ccc(Cl)cc7)CC(C)(C)CC6)CC5)cc4Oc4cnc5[nH]ccc5c4)cc([N+](=O)[O-])c3N2)CC1` [Example 2-201, (R)-2-((1H-pyrrolo[2,3-b]pyridin-5-yl)oxy)-4-(4-((4′-chloro-5,5-dimethyl-3,4,5,6-tetra-hydro-[1,1′-biphenyl]-2-yl)methyl)piperazin-1-yl)-N-((3-((1-methylpiperidin-4-yl)meth-yl)-5-nitro-3,4-dihydro-2H-benzo[b][1,4]ox-azin-7-yl)sulfonyl)benzamide]: the half-inhibitory concentration (IC50) in the assay with DOHH2 cells (Homo sapiens, DOHH-2, 120 h) turned out to be 145 nM; in the assay on RS4;11 cells, 22 nM.

Consider `CC1(C)CCC(CN2CCN(c3ccc(C(=O)NS(=O)(=O)c4cc5c(c([N+](=O)[O-])c4)N[C@H](CN4CCOCC4)CO5)c(Oc4cnc5[nH]ccc5c4)c3)CC2)=C(c2ccc(Cl)cc2)C1` [Example 2-5, (R)-2-((1H-pyrrolo[2,3-b]pyridin-5-yl)oxy)-4-(4-((4′-chloro-5,5-dimethyl-3,4,5,6-tetra-hydro-[1,1′-biphenyl]-2-yl)methyl)piperazin-1-yl)-N-((3-(morpholinomethyl)-5-nitro-3,4-dihydro-2H-benzo[b][1,4]oxazin-7-yl)sulfonyl)benzamide], for which the IC50 in the assay with DOHH2 cells (Homo sapiens, DOHH-2, 120 h) came out at 12 nM; in the assay on RS4;11 cells it was 3 nM.

As to `C[C@@H]1CN(CC[C@@H]2COc3cc(S(=O)(=O)NC(=O)c4ccc(N5CCN(CC6=C(c7ccc(Cl)cc7)CC(C)(C)CC6)CC5)cc4Oc4cnc5[nH]ccc5c4)cc([N+](=O)[O-])c3N2)CCN1C1COC1` [Example 2-39, 2-((1H-pyrrolo[2,3-b]pyridin-5-yl)oxy)-4-(4-((4′-chloro-5,5-dimethyl-3,4,5,6-tetrahydro-[1,1′-biphenyl]-2-yl)methyl)piperazin-1-yl)-N-(((R)-3-(2-((R)-3-methyl-4-(oxetan-3-yl)piperazin-1-yl)ethyl)-5-nitro-3,4-dihydro-2H-benzo[b][1,4]oxazin-7-yl)sulfonyl) benzamide], the IC50 in the assay on DOHH2 cells (Homo sapiens, DOHH-2, 120 h) amounted to 33 nM; in the assay on RS4;11 cells it was 9 nM.

Consider `COc1ccc(CC2COc3cc(S(=O)(=O)NC(=O)c4ccc(N5CCN(CC6=C(c7ccc(Cl)cc7)CC(C)(C)CC6)CC5)cc4Oc4cnc5[nH]ccc5c4)cc([N+](=O)[O-])c3N2)nc1` (centres unmarked) [Example 2-161, 2-((1H-pyrrolo[2,3-b]pyridin-5-yl)oxy)-4-(4-((4′-chloro-5,5-dimethyl-3,4,5,6-tetrahydro-[1,1′-biphenyl]-2-yl)methyl)piperazin-1-yl)-N-((3-((5-methoxypyridin-2-yl)methyl)-5-nitro-3,4-dihydro-2H-benzo[b][1,4]oxa-zin-7-yl)sulfonyl)benzamide], for which the half-maximal inhibitory concentration (IC50) with DOHH2 cells (Homo sapiens, DOHH-2, 120 h) worked out at 20 nM; in the assay on RS4;11 cells, 17 nM.

Take `CC1(C)CCC(CN2CCN(c3ccc(C(=O)NS(=O)(=O)c4cc5c(c([N+](=O)[O-])c4)N[C@H](CN4CCC(NS(C)(=O)=O)CC4)CO5)c(Oc4cnc5[nH]ccc5c4)c3)CC2)=C(c2ccc(Cl)cc2)C1` [Example 2-151, (R)-2-((1H-pyrrolo[2,3-b]pyridin-5-yl)oxy)-4-(4-((4′-chloro-5,5-dimethyl-3,4,5,6-tetra-hydro-[1,1′-biphenyl]-2-yl)methyl)piperazin-1-yl)-N-((3-((4-(methylsulfonamido)pi-peridin-1-yl)methyl)-5-nitro-3,4-dihydro-2H-benzo[b][1,4]oxazin-7-yl)sulfonyl)benzamide]: the IC50 with DOHH2 cells (Homo sapiens, DOHH-2, 120 h) worked out at 2 nM; in the assay on RS4;11 cells, 1 nM.

Regarding `CC1(C)CCC(CN2CCN(c3ccc(C(=O)NS(=O)(=O)c4cc5c(c([N+](=O)[O-])c4)N[C@@H](CN4CCC(C)(O)CC4)C5)c(Oc4cnc5[nH]ccc5c4)c3)CC2)=C(c2ccc(Cl)cc2)C1` [Example 1-9, (R)-2-((1H-pyrrolo[2,3-b]pyridin-5-yl)oxy)-4-(4-((4′-chloro-5,5-dimethyl-3,4,5,6-tetra-hydro-[1,1′-biphenyl]-2-yl)methyl)piperazin-1-yl)-N-((2-((4-hydroxy-4-methylpiperidin-1-yl)methyl)-7-nitroindolin-5-yl)sulfonyl) benzamide], the IC50 was determined as 66 nM in the assay on DOHH2 cells (Homo sapiens, DOHH-2, 120 h) and 80 nM in the assay on RS4;11 cells.

As for `CC1(C)CCC(CN2CCN(c3ccc(C(=O)NS(=O)(=O)c4cc5c(c([N+](=O)[O-])c4)N[C@H](CC4CCC(O)CC4)CO5)c(Oc4cnc5[nH]ccc5c4)c3)CC2)=C(c2ccc(Cl)cc2)C1` (single isomer, unassigned) [Example 2-239A], the concentration for half-maximal inhibition (IC50) worked out at 5 nM in the assay on DOHH2 cells and 1 nM in the assay on RS4;11 cells.

As for `CC1(C)CCC(CN2CCN(c3ccc(C(=O)NS(=O)(=O)c4cc5c(c([N+](=O)[O-])c4)N[C@@H](CCN4CCOCC4)CO5)c(Oc4cnc5[nH]ccc5c4)c3)CC2)=C(c2ccc(Cl)cc2)C1` [Example 2-10, (S)-2-((1H-pyrrolo[2,3-b]pyridin-5-yl)oxy)-4-(4-((4′-chloro-5,5-dimethyl-3,4,5,6-tetra-hydro-[1,1′-biphenyl]-2-yl)methyl)piperazin-1-yl)-N-((3-(2-morpholinoethyl)-5-nitro-3,4-dihydro-2H-benzo[b][1,4]oxazin-7-yl)sulfonyl)benzamide], the half-inhibitory concentration (IC50) came out at 28 nM in the assay on DOHH2 cells (Homo sapiens, DOHH-2, 120 h) and 9 nM with RS4;11 cells.

Take `CC1(C)CCC(CN2CCN(c3ccc(C(=O)NS(=O)(=O)c4cc5c(c([N+](=O)[O-])c4)N[C@H](CC#N)CO5)c(Oc4cnc5[nH]ccc5c4)c3)CC2)=C(c2ccc(Cl)cc2)C1` [Example 2-144, (R)-2-((1H-pyrrolo[2,3-b]pyridin-5-yl)oxy)-4-(4-((4′-chloro-5,5-dimethyl-3,4,5,6-tetra-hydro-[1,1′-biphenyl]-2-yl)methyl)piperazin-1-yl)-N-((3-(cyanomethyl)-5-nitro-3,4-di-hydro-2H-benzo[b][1,4]oxazin-7-yl)sulfo-nyl)benzamide]: the IC50 in the assay on DOHH2 cells (Homo sapiens, DOHH-2, 120 h) was 14 nM; in the assay with RS4;11 cells it was 3 nM.

`CC1(C)CCC(CN2CCN(c3ccc(C(=O)NS(=O)(=O)c4cc5c(c([N+](=O)[O-])c4)N[C@@H](Cc4ccc(F)cc4)CO5)c(Oc4cnc5[nH]ccc5c4)c3)CC2)=C(c2ccc(Cl)cc2)C1` [Example 2-190, (S)-2-((1H-pyrrolo[2,3-b]pyridin-5-yl)oxy)-4-(4-((4′-chloro-5,5-dimethyl-3,4,5,6-tetra-hydro-[1,1′-biphenyl]-2-yl)methyl)piperazin-1-yl)-N-((3-(4-fluorobenzyl)-5-nitro-3,4-dihydro-2H-benzo[b][1,4]oxazin-7-yl)sulfo-nyl)benzamide]: the IC50 in the assay on DOHH2 cells (Homo sapiens, DOHH-2, 120 h) is 25 nM; in the assay with RS4;11 cells it was 8 nM.

For `CN(C)CC[C@H]1COc2cc(S(=O)(=O)NC(=O)c3ccc(N4CCN(CC5=C(c6ccc(Cl)cc6)CC(C)(C)CC5)CC4)cc3Oc3cnc4[nH]ccc4c3)cc([N+](=O)[O-])c2N1` [Example 2-12, (S)-2-((1H-pyrrolo[2,3-b]pyridin-5-yl)oxy)-4-(4-((4′-chloro-5,5-dimethyl-3,4,5,6-tetra-hydro-[1,1′-biphenyl]-2-yl)methyl)piperazin-1-yl)-N-((3-(2-(dimethylamino)ethyl)-5-nitro-3,4-dihydro-2H-benzo[b][1,4]oxazin-7-yl)sulfonyl)benzamide], the IC50 in the assay with DOHH2 cells (Homo sapiens, DOHH-2, 120 h) stood at 19 nM; with RS4;11 cells, 1 nM.

In the case of `CC1(C)CCC(CN2CCN(c3ccc(C(=O)NS(=O)(=O)c4cc5c(c([N+](=O)[O-])c4)N[C@@H](CCNC(=O)C4CCOCC4)CO5)c(Oc4cnc5[nH]ccc5c4)c3)CC2)=C(c2ccc(Cl)cc2)C1` [Example 2-56, (S)-N-(2-(7-(N-(2-((1H-pyrrolo[2,3-b]pyridin-5-yl)oxy)-4-(4-((4′-chloro-5,5-dimethyl-3,4,5,6-tetrahydro-[1,1′-biphenyl]-2-yl)meth-yl)piperazin-1-yl)benzoyl)sulfamoyl)-5-nitro-3,4-dihydro-2H-benzo[b][1,4]oxazin-3-yl)ethyl)tetrahydro-2H-pyran-4-carboxamide], the 50% inhibitory concentration (IC50) is 571 nM with DOHH2 cells (Homo sapiens, DOHH-2, 120 h) and 41 nM in the assay with RS4;11 cells.

On to `CC1(C)CCC(CN2CCN(c3ccc(C(=O)NS(=O)(=O)c4cc5c(c([N+](=O)[O-])c4)N[C@H](CN=S(C)(C)=O)CO5)c(Oc4cnc5[nH]ccc5c4)c3)CC2)=C(c2ccc(Cl)cc2)C1` [Example 2-70, (R)-2-((1H-pyrrolo[2,3-b]pyridin-5-yl)oxy)-4-(4-((4′-chloro-5,5-dimethyl-3,4,5,6-tetra-hydro-[1,1′-biphenyl]-2-yl)methyl)piperazin-1-yl)-N-((3-(((dimethyl(oxo)-λ^6-sulfanyl-idene)amino)methyl)-5-nitro-3,4-dihydro-2H-benzo[b][1,4]oxazin-7-yl)sulfonyl)benza-mide], for which the IC50 in the assay with DOHH2 cells (Homo sapiens, DOHH-2, 120 h) is 28 nM; in the assay with RS4;11 cells, 5 nM.

Take `C[C@H]1CN(CC[C@H]2COc3cc(S(=O)(=O)NC(=O)c4ccc(N5CCN(CC6=C(c7ccc(Cl)cc7)CC(C)(C)CC6)CC5)cc4Oc4cnc5[nH]ccc5c4)cc([N+](=O)[O-])c3N2)CCO1` [Example 2-51]: the 50% inhibitory concentration (IC50) turned out to be 13 nM with DOHH2 cells (Homo sapiens, DOHH-2, 120 h) and 10 nM with RS4;11 cells.
